How the values were obtained:
[1] = target: Adenosine deaminase 2 (CECR1) (Homo sapiens) (UniProt Q9NZK5); test: Tested for inhibition against human plasma adenosine deaminase (ADA2)
[2] = target: Adenosine deaminase 2 (CECR1) (Homo sapiens) (UniProt Q9NZK5); test: Tested for binding constant against adenosine deaminase (ADA2) in human plasma

Adenosine deaminase 2 (CECR1) (Homo sapiens), sequence (Q9NZK5 whole entry, looked up): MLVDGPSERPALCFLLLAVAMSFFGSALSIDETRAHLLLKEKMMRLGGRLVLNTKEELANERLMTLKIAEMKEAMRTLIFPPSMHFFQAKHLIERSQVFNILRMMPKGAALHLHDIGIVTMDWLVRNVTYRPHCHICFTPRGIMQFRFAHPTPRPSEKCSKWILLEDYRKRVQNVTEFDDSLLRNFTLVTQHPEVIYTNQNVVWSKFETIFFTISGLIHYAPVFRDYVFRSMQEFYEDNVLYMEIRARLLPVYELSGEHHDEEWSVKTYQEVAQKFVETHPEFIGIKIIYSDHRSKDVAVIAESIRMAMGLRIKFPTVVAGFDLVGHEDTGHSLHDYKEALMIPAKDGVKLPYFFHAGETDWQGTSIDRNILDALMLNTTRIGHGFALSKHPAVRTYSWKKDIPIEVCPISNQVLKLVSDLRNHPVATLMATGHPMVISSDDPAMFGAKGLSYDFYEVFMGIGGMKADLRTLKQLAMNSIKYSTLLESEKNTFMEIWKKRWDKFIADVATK

| Structure (SMILES) | Ki [1] [µM] | Ki [2] [µM] |
| --- | --- | --- |
| Nc1nncc2c1nnn2C1O[C@H](CO)[C@@H](O)[C@H]1O (some centres not stated) | 1410 |  |
| Nc1ncnc2c1ncn2[C@@H]1O[C@H](CO)[C@@H](O)[C@H]1O [[U-14C]adenosine] |  | 2180 |
